A word on the EC50: it is the concentration giving half of the maximal effect.

The test concerns HBV. As to the kind of experiment: HepAD38 antiviral assay: reduction of viral product accumulation (virion DNA by qPCR, HBsAg or HBeAg by ELISA). The test is classed as cell-based, hepatitis B virus. The note with it: Hepatitis B virus, 120 h; HepAD38 cells, five days after compound addition; 50% reduction of viral product vs no drug controls; read-out: HepAD38 EC50. The procedure: Methods: HepAD38 cells are maintained as previously reported (Ladner et al, Antimicrob. Agents Chemother. 1997, […], 1715). Briefly, cells are passaged upon attaining confluency in DMEM/F12 media in the presence of 10% FBS, Penn/Strep, 250 μg/mL G418, and 1 ug/ml tetracycline. Novel compounds are screened by first washing cells three times with PBS to remove tetracycline, and plating in 96 well plates at 35,000 cells/well. Compounds dissolved in DMSO are then diluted 1:200 into wells containing cells. Five days after compound addition, material is harvested for analysis. For an extended 8 days analysis, cells are plated and treated as described above, but media and compound are refreshed on d2 and d5 post initial treatment.
On harvest day, virion DNA is obtained by lysing with Sidestep Lysis and Stabilization Buffer and then quantified via quantitative real time PCR. Commercially available ELISA kits are used to quantitate the viral proteins HBsAg (Alpco) or HbeAg (US Biological) by following the manufacturer's recommended protocol after diluting samples to match the linear range of their respective assays.
A general note: Real-time PCR tracks product formation cycle by cycle.
Consider `CC(C)(O)C(O)CNC(=O)C[C@]1(O)C2CCC1C[C@@H](S(=O)(=O)c1cc(C(=O)Nc3cc(F)c(F)c(F)c3)ccc1Cl)C2` (some centres unmarked) [Example 56], for which the half-maximal effective concentration (EC50) was 100 to 200 nM.
`Cn1nccc1C(O)[C@]1(O)C2CCC1C[C@@H](S(=O)(=O)c1cc(C(=O)Nc3ccc(F)c(F)c3)ccc1Cl)C2` (some centres unmarked) [Example 288]: the EC50 was below 104 nM.
On to `COC(=O)N1CCCC1C(=O)NC[C@@]1(O)C2CC[C@H]1C[C@H](S(=O)(=O)c1cc(C(=O)Nc3cc(F)c(F)c(F)c3)ccc1Cl)C2` (some centres unmarked) [Example 23], for which the concentration for a half-maximal effect (EC50) was below 104 nM.
For the compound `Cc1ccnc([C@H](O)[C@@]2(O)C3CC[C@H]2C[C@H](S(=O)(=O)c2cc(C(=O)Nc4ccc(F)c(F)c4)ccc2Cl)C3)c1` [Example 296a], the concentration giving a half-maximal response (EC50) was below 104 nM.
Regarding `COC[C@@H](C)NC(=O)C[C@]1(O)C2CCC1C[C@@H](S(=O)(=O)c1cc(C(=O)Nc3cc(F)c(F)c(F)c3)ccc1Cl)C2` [Example 115], the concentration for a half-maximal effect (EC50) is below 104 nM.
Regarding `O=C(Nc1ccc(F)c(F)c1)c1ccc(Cl)c(S(=O)(=O)[C@H]2CC3CCC(C2)[C@]3(O)C(O)Cn2cccn2)c1` (some centres unmarked) [Example 314], the EC50 is below 104 nM.
Turning to `CC(C)(O)CNC(=O)C[C@]1(O)CC[C@H](CS(=O)(=O)c2cc(C(=O)Nc3ccc(F)c(F)c3)ccc2Cl)CC1` [Example 196], the concentration for a half-maximal effect (EC50) was above 200 nM.
The figure for `O=C(Nc1cc(F)c(F)c(F)c1)c1ccc(Cl)c(S(=O)(=O)[C@H]2C3CC[C@H]2C[C@](O)(C(O)C(O)CO)C3)c1` (mixture of isomers) [Example 64] is 100 to 200 nM; for `O=C(Nc1ccc(F)c(F)c1)c1ccc(Cl)c(S(=O)(=O)CC2CCC(F)CC2)c1` (centres unmarked) [Example 226] it is above 200 nM.
`Cc1ccnc([C@@H](O)[C@@]2(O)C3CC[C@H]2C[C@H](S(=O)(=O)c2cc(C(=O)Nc4ccc(F)c(F)c4)ccc2Cl)C3)c1` [Example 296b]: the EC50 is below 104 nM.
For `O=C(CC1(O)CC(S(=O)(=O)c2cc(C(=O)Nc3ccc(F)c(F)c3)ccc2Cl)C1)NCCCO` (centres unmarked) [Example 249], the EC50 was above 200 nM.
With `CC(C)([C@H]1CC[C@@](C)(O)CC1)S(=O)(=O)c1cc(C(=O)Nc2ccc(F)c(F)c2)ccc1Cl` [Example 237], the EC50 is above 200 nM.
Turning to `Nc1cc(NC(=O)c2ccc(Cl)c(S(=O)(=O)[C@H]3CC4CCC(C3)[C@]4(O)C(O)c3ncc[nH]3)c2)ccc1F` (some centres unmarked) [Example 287], the EC50 was above 200 nM.
On to `COC(=O)[C@H]1C[C@@H](S(=O)(=O)c2cc(C(=O)Nc3ccc(F)c(F)c3)ccc2Cl)C1` [Example 250b], for which the EC50 is above 200 nM.
The result for `O=C(Nc1cc(F)c(F)c(F)c1)c1ccc(Cl)c(S(=O)(=O)[C@H]2CC3CCC(C2)[C@]3(O)CO[C@H]2C[C@@H](O)[C@@H](O)C2)c1` [Example 34] reads below 104 nM.
The figure for `O=C(Nc1ccc(F)c(F)c1)c1ccc(Cl)c(S(=O)(=O)[C@@H]2CC3CC[C@@H](C2)[C@@]3(O)C(O)c2ccc(C(F)(F)F)cn2)c1` (some centres unmarked) [Example 300] is above 200 nM; for `COC[C@]1(O)C2CCC1C[C@@H](S(=O)(=O)c1cc(C(=O)Nc3cc(F)c(F)c(F)c3)ccc1Cl)C2` [Example 123] it is below 104 nM.
As to `O=C(O)CCNC(=O)C[C@]1(O)C2CCC1C[C@@H](S(=O)(=O)c1cc(C(=O)Nc3cc(F)c(F)c(F)c3)ccc1Cl)C2` [Example 140], the 50% effective concentration (EC50) was above 200 nM.
The result for `CC(O)C(O)CNC(=O)[C@]1(O)C2CCC1C[C@@H](S(=O)(=O)c1cc(C(=O)Nc3cc(F)c(F)c(F)c3)ccc1Cl)C2` (mixture of isomers) [Example 38] reads above 200 nM.
Turning to `C[C@]1(O)C2CCC1C[C@@H](S(=O)(=O)c1cc(C(=O)Nc3ccc(F)c(F)c3)c(-c3cccnc3)cc1Cl)C2` [Example 102], the half-maximal effective concentration (EC50) is above 200 nM.
On to `CC[C@@H](O)[C@H](O)[C@]1(O)C2CCC1C[C@@H](S(=O)(=O)c1cc(C(=O)Nc3ccc(F)c(F)c3)ccc1Cl)C2` (racemic) [Example 333], for which the EC50 was below 104 nM.
Take `C[C@H](O)[C@@H](O)[C@@]1(O)C2CC(O)C1C[C@H](S(=O)(=O)c1cc(C(=O)Nc3ccc(F)c(F)c3)ccc1Cl)C2` (some centres unmarked) [Example 337]: the half-maximal effective concentration (EC50) is above 200 nM.
Turning to `O=C(Nc1ccc(F)c(F)c1)c1ccc(Cl)c(S(=O)(=O)CC2CCC(F)(F)CC2)c1` [Example 219], the concentration for a half-maximal effect (EC50) is above 200 nM.
Regarding `C[C@]1(O)C2CCC1C[C@@H](S(=O)(=O)c1cc(C(=O)Nc3ccc(F)c(F)c3)c(Br)cc1Cl)C2` [Example 100], the EC50 was below 104 nM.
`COCCOC[C@]1(O)C2CCC1C[C@@H](S(=O)(=O)c1cc(C(=O)Nc3cc(F)c(F)c(F)c3)ccc1Cl)C2` [Example 98]: the 50% effective concentration (EC50) is below 104 nM.
The result for `Cn1cc(C(O)C(O)[C@]2(O)C3CCC2C[C@@H](S(=O)(=O)c2cc(C(=O)Nc4ccc(F)c(F)c4)ccc2Cl)C3)cn1` (some centres unmarked) [Example 322] reads below 104 nM; that for `O=C(Nc1ccc(F)c(F)c1)c1ccc(Cl)c(S(=O)(=O)[C@H]2CC3CC[C@@H](C2)[C@@]3(O)C(O)Cn2ccnc2)c1` (some centres unmarked) [Example 311], above 200 nM; that for `CC(C)(O)C[C@]1(O)CC[C@@H](CS(=O)(=O)c2cc(C(=O)Nc3ccc(F)c(F)c3)ccc2Cl)CC1` [Example 228], above 200 nM.
On to `O=C(Nc1ccc(F)c(F)c1)c1ccc(Cl)c(S(=O)(=O)[C@H]2CC3CCC(C2)[C@]3(O)CN2CCOC2=O)c1` [Example 306], for which the EC50 was below 104 nM.
The figure for `C[C@]1(O)C2CCC1C[C@@H](S(=O)(=O)c1cc(C(=O)Nc3ccc(F)c(F)c3)c(-c3ccccn3)cc1Cl)C2` [Example 133] is above 200 nM; for `O=C(Nc1ccc(F)c(F)c1)c1ccc(Cl)c(S(=O)(=O)[C@@H]2CC3CC[C@@H](C2)[C@@]3(O)C(O)c2ccnc(Br)c2F)c1` (some centres unmarked) [Example 298] it is below 104 nM; for `CC(C)c1cc(NC(=O)c2ccc(Cl)c(S(=O)(=O)[C@H]3CC4CCC(C3)[C@@]4(C)O)c2)ccc1F` [Example 43] it is above 200 nM.
Consider `CC(C)(O)CC(=O)NC[C@]1(O)C2CCC1C[C@@H](S(=O)(=O)c1cc(C(=O)Nc3ccc(F)c(F)c3)ccc1Cl)C2` [Example 170], for which the EC50 was below 104 nM.
As for `CS(=O)(=O)NCC(O)[C@]1(O)C2CCC1C[C@@H](S(=O)(=O)c1cc(C(=O)Nc3cc(F)c(F)c(F)c3)ccc1Cl)C2` (some centres unmarked) [Example 26], the 50% effective concentration (EC50) was below 104 nM.
As to `CC(C)C(O)[C@]1(O)C2CCC1C[C@@H](S(=O)(=O)c1cc(C(=O)Nc3ccc(F)c(F)c3)ccc1Cl)C2` (some centres unmarked) [Example 281], the EC50 is above 200 nM.
`O=C(Nc1cc(F)c(F)c(F)c1)c1ccc(Cl)c(S(=O)(=O)[C@@H]2CC3CC[C@@H](C2)[C@@]3(O)CNC(=O)C2CC=CC2)c1` [Example 22]: the half-maximal effective concentration (EC50) is below 104 nM.
The result for `O=C(Nc1cc(F)c(F)c(F)c1)c1ccc(Cl)c(S(=O)(=O)[C@H]2CC3CCC(C2)[C@]3(O)CC(=O)N2CC3(COC3)C2)c1` [Example 94] reads below 104 nM; that for `O=C(Nc1ccc(F)c(F)c1)c1ccc(Cl)c(S(=O)(=O)[C@H]2CC3CCC(C2)[C@]3(O)C(O)C(O)CN2CCOC2=O)c1` (some centres unmarked) [Example 313], below 104 nM; that for `C[C@]1(O)C2CCC1C[C@@H](S(=O)(=O)c1cc(C(=O)Nc3cccnn3)ccc1Cl)C2` [Example 213], above 200 nM.
The figure for `O=C1NCC([C@H](O)[C@@H](O)[C@]2(O)C3CCC2C[C@@H](S(=O)(=O)c2cc(C(=O)Nc4ccc(F)c(F)c4)ccc2Cl)C3)O1` (some centres unmarked) [Example 348] is below 104 nM; for `O=C(Nc1ccc(F)c(F)c1)c1ccc(Cl)c(S(=O)(=O)C2CC3CCC(C2)C3=O)c1` (centres unmarked) [Example 204] it is 100 to 200 nM; for `C[C@@]1(O)C2CC[C@H]1C[C@H](S(=O)(=O)c1cc(C(=O)Nc3cnccn3)ccc1Cl)C2` [Example 214] it is above 200 nM.
Consider `COC(=O)N1CC[C@@H](O)[C@H]1C(=O)NC[C@]1(O)C2CCC1C[C@@H](S(=O)(=O)c1cc(C(=O)Nc3cc(F)c(F)c(F)c3)ccc1Cl)C2` [Example 78], for which the EC50 was above 200 nM.
As to `C[C@@]1(O)C2CC[C@H]1C[C@H](S(=O)(=O)c1cc(C(=O)Nc3ccc(F)c(F)c3)c(Cc3ccccc3)cc1Cl)C2` [Example 160], the EC50 was above 200 nM.
Turning to `COC(=O)N[C@@H](C)C(=O)NC[C@]1(O)C2CCC1C[C@@H](S(=O)(=O)c1cc(C(=O)Nc3cc(F)c(F)c(F)c3)ccc1Cl)C2` [Example 48], the EC50 was below 104 nM.
As to `COC[C@]1(O)C2CCC1C[C@H](S(=O)(=O)c1cc(C(=O)Nc3cc(F)c(F)c(F)c3)ccc1Cl)C2` [Example 124], the EC50 was below 104 nM.
Turning to `COCCNC(=O)C[C@]1(O)C2CCC1C[C@@H](S(=O)(=O)c1cc(C(=O)Nc3ccc(F)c(F)c3)ccc1Cl)C2` [Example 190], the concentration giving a half-maximal response (EC50) was below 104 nM.
`COCCOCCOC[C@]1(O)C2CCC1C[C@@H](S(=O)(=O)c1cc(C(=O)Nc3cc(F)c(F)c(F)c3)ccc1Cl)C2` [Example 99]: the EC50 was below 104 nM.
Consider `O=C(Nc1ccc(F)c(F)c1)c1ccc(Cl)c(S(=O)(=O)C2CO[C@@H]3C(O)CO[C@H]23)c1` (some centres unmarked) [Example 201], for which the EC50 was above 200 nM.
Turning to `C[C@]1(O)C2CCC1C[C@@H](S(=O)(=O)c1cc(C(=O)Nc3ccnnc3)ccc1Cl)C2` [Example 212], the concentration giving a half-maximal response (EC50) was above 200 nM.
In the case of `O=C(Nc1ccc(F)c(F)c1)c1ccc(Cl)c(S(=O)(=O)[C@H]2C[C@@H](CO)C2)c1` [Example 252b], the EC50 is above 200 nM.
As for `C[C@]1(O)C2CCC1C[C@@H](S(=O)(=O)c1cc(C(=O)Nc3cc(F)cc(F)c3)ccc1Cl)C2` [Example 105], the EC50 was below 104 nM.
In the case of `COC(=O)CCNC(=O)C[C@]1(O)C2CCC1C[C@@H](S(=O)(=O)c1cc(C(=O)Nc3cc(F)c(F)c(F)c3)ccc1Cl)C2` [Example 139], the 50% effective concentration (EC50) was above 200 nM.

(Values after patent US11596611B2, “Hepatitis B antiviral agents” (ENANTA PHARMACEUTICALS, INC., priority 2017, dated 2023).)
